From PubChem BioAssay AID1963867 (Molecular Pharmacology Branch, DTP, NCI, 2024)

Test system: KRAS-mutant PDC tumor spheroid with HUVEC/MSC, viability
Assay: Anticancer human tumor 327498-153-R-J2-PDC patient-derived uterine carcinosarcoma cell line growth inhibition [KRAS2]
Details: for IC50: curve of first compound; for viability, T/C: stronger effect = lower value
Method in brief: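 KRAS-mutant tumor cells were grown as spheroids with HUVEC endothelial cells and human MSCs as stroma. Targeted agents were tested alone and with KRAS pathway inhibitors. Doses started at or near clinical Cmax, or 10 microM, descending half-log.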

[1] = second compound 0.0316 µM, first compound 0.0316 µM
[2] = second compound 0.0316 µM, first compound 0.1 µM
[3] = second compound 0.0316 µM, first compound 0.316 µM
[4] = second compound 0.0316 µM, first compound 1 µM
[5] = second compound 0.0316 µM, first compound 3.16 µM
[6] = second compound 0.0316 µM, first compound 10 µM
[7] = second compound 0.1 µM, first compound 0.0316 µM
[8] = second compound 0.1 µM, first compound 0.1 µM
[9] = second compound 0.1 µM, first compound 0.316 µM
[10] = second compound 0.1 µM, first compound 1 µM
[11] = second compound 0.1 µM, first compound 3.16 µM
[12] = second compound 0.1 µM, first compound 10 µM
[13] = second compound 0.316 µM, first compound 0.0316 µM
[14] = second compound 0.316 µM, first compound 0.1 µM
[15] = second compound 0.316 µM, first compound 0.316 µM
[16] = second compound 0.316 µM, first compound 1 µM
[17] = second compound 0.316 µM, first compound 3.16 µM
[18] = second compound 0.316 µM, first compound 10 µM
[19] = second compound 1 µM, first compound 0.0316 µM
[20] = second compound 1 µM, first compound 0.1 µM
[21] = second compound 1 µM, first compound 0.316 µM
[22] = second compound 1 µM, first compound 1 µM
[23] = second compound 1 µM, first compound 3.16 µM
[24] = second compound 1 µM, first compound 10 µM
[25] = second compound 3.16 µM, first compound 0.0316 µM
[26] = second compound 3.16 µM, first compound 0.1 µM
[27] = second compound 3.16 µM, first compound 0.316 µM
[28] = second compound 3.16 µM, first compound 1 µM
[29] = second compound 3.16 µM, first compound 3.16 µM
[30] = second compound 3.16 µM, first compound 10 µM
[31] = second compound 0.0316 µM, first compound 0.000316 µM
[32] = second compound 0.0316 µM, first compound 0.001 µM
[33] = second compound 0.0316 µM, first compound 0.00316 µM
[34] = second compound 0.0316 µM, first compound 0.01 µM
[35] = second compound 0.1 µM, first compound 0.000316 µM
[36] = second compound 0.1 µM, first compound 0.001 µM
[37] = second compound 0.1 µM, first compound 0.00316 µM
[38] = second compound 0.1 µM, first compound 0.01 µM
[39] = second compound 0.316 µM, first compound 0.000316 µM
[40] = second compound 0.316 µM, first compound 0.001 µM
[41] = second compound 0.316 µM, first compound 0.00316 µM
[42] = second compound 0.316 µM, first compound 0.01 µM
[43] = second compound 1 µM, first compound 0.000316 µM
[44] = second compound 1 µM, first compound 0.001 µM
[45] = second compound 1 µM, first compound 0.00316 µM
[46] = second compound 1 µM, first compound 0.01 µM
[47] = second compound 3.16 µM, first compound 0.000316 µM
[48] = second compound 3.16 µM, first compound 0.001 µM
[49] = second compound 3.16 µM, first compound 0.00316 µM
[50] = second compound 3.16 µM, first compound 0.01 µM
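Note: spheroids exposed to agents for seven days before reading.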
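Throughout, for viability, T/C: 100% = DMSO vehicle wells so lower means fewer viable cells.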

Row | Structure (SMILES) | IC50 (second compound 0.0316 µM) | IC50 (second compound 0.1 µM) | IC50 (second compound 0.316 µM) | IC50 (second compound 1 µM) | IC50 (second compound 3.16 µM) | viability, T/C [1] | viability, T/C [2] | viability, T/C [3] | viability, T/C [4] | viability, T/C [7] | viability, T/C [8] | viability, T/C [9] | viability, T/C [10] | viability, T/C [13] | viability, T/C [14] | viability, T/C [19] | viability, T/C [20] | viability, T/C [21] | viability, T/C [25] | viability, T/C [26] | other results
1 | CC(C)NCC(C(=O)N1CCN(c2ncnc3c2C(C)CC3O)CC1)c1ccc(Cl)cc1 (stereo not drawn) + C=CC(=O)N1CCN(c2nc(OCC3CCCN3C)nc3c2CCN(c2cccc4cccc(C)c24)C3)CC1CC#N | 66.9 nM | < 31.6 nM | < 31.6 nM | < 31.6 nM | < 31.6 nM | 59.5% | 44.3% | 32.8% | 22.8% | 48.7% | 32.4% | 22.1% | 15.7% | 42.5% | 29.8% | 34.5% | 25.2% | 15.1% | 0.26% | 0.41% | viability, T/C [5]: 15.5%; viability, T/C [6]: 9.69%; viability, T/C [11]: 12.7%; viability, T/C [12]: 11.4%; viability, T/C [15]: 18.3%; viability, T/C [16]: 13.5%; viability, T/C [17]: 12.3%; viability, T/C [18]: 7.28%; viability, T/C [22]: 12.6%; viability, T/C [23]: 9.14%; viability, T/C [24]: 6.92%; viability, T/C [27]: 0.51%; viability, T/C [28]: 0.15%; viability, T/C [29]: 0.14%; viability, T/C [30]: 0.21%
2 | CC(C)n1nc(-c2ccc3oc(N)nc3c2)c2c(N)ncnc21 + C=CC(=O)N1CCN(c2nc(OCC3CCCN3C)nc3c2CCN(c2cccc4cccc(C)c24)C3)CC1CC#N | 1.03 nM | 0.342 nM | 0.586 nM | < 0.316 nM | < 0.316 nM | 8.35% | 5.42% |  |  | 8.1% | 4.85% |  |  | 9.55% | 4.33% | 4.83% | 3.23% |  | 0.14% | 0.21% | viability, T/C [31]: 62.7%; viability, T/C [32]: 49.2%; viability, T/C [33]: 35.1%; viability, T/C [34]: 17.8%; viability, T/C [35]: 51.6%; viability, T/C [36]: 35.8%; viability, T/C [37]: 28.4%; viability, T/C [38]: 17.2%; viability, T/C [39]: 57.3%; viability, T/C [40]: 43.7%; viability, T/C [41]: 28.8%; viability, T/C [42]: 15.8%; viability, T/C [43]: 46.5%; viability, T/C [44]: 33%; viability, T/C [45]: 22.6%; viability, T/C [46]: 13.2%; viability, T/C [47]: 0.28%; viability, T/C [48]: 0.25%; viability, T/C [49]: 0.22%; viability, T/C [50]: 0.14%
3 | CC1(C)CCC(CN2CCN(c3ccc(C(=O)NS(=O)(=O)c4ccc(NCC5CCOCC5)c([N+](=O)[O-])c4)c(Oc4cnc5[nH]ccc5c4)c3)CC2)=C(c2ccc(Cl)cc2)C1 + C=CC(=O)N1CCN(c2nc(OCC3CCCN3C)nc3c2CCN(c2cccc4cccc(C)c24)C3)CC1CC#N | 1990 nM | 1650 nM | 1100 nM | < 31.6 nM | < 31.6 nM | 70.1% | 66.6% | 72.7% | 63.8% | 56.8% | 59.2% | 52% | 53% | 48.7% | 49% | 44.5% | 44.1% | 44.9% | 1.15% | 1.18% | viability, T/C [5]: 40.2%; viability, T/C [6]: 8.7%; viability, T/C [11]: 45.9%; viability, T/C [12]: 12.1%; viability, T/C [15]: 58.4%; viability, T/C [16]: 52.2%; viability, T/C [17]: 27.3%; viability, T/C [18]: 1.57%; viability, T/C [22]: 48%; viability, T/C [23]: 18.5%; viability, T/C [24]: 0.31%; viability, T/C [27]: 0.54%; viability, T/C [28]: 0.45%; viability, T/C [29]: 1.03%; viability, T/C [30]: 0.39%
4 | CCN1CCN(Cc2ccc(Nc3ncc(F)c(-c4cc(F)c5nc(C)n(C(C)C)c5c4)n3)nc2)CC1 + C=CC(=O)N1CCN(c2nc(OCC3CCCN3C)nc3c2CCN(c2cccc4cccc(C)c24)C3)CC1CC#N | < 3.16 nM | < 3.16 nM | < 3.16 nM | < 3.16 nM | < 3.16 nM | 33.4% | 35.2% | 34.5% | 40.4% | 28.2% | 34.2% | 33.7% | 36.4% | 30.1% | 24% | 21.1% | 19.3% | 23.5% | 0.46% | 0.84% | viability, T/C [33]: 55.9%; viability, T/C [34]: 46.6%; viability, T/C [37]: 49.1%; viability, T/C [38]: 35.4%; viability, T/C [41]: 40.5%; viability, T/C [42]: 33.1%; viability, T/C [15]: 33.3%; viability, T/C [16]: 37.9%; viability, T/C [45]: 31.1%; viability, T/C [46]: 23.1%; viability, T/C [22]: 13.5%; viability, T/C [49]: 1.79%; viability, T/C [50]: 0.22%; viability, T/C [27]: 0.58%; viability, T/C [28]: 0.24%
5 | CCNC(=O)CC1N=C(c2ccc(Cl)cc2)c2cc(OC)ccc2-n2c(C)nnc21 (stereo not drawn) + C=CC(=O)N1CCN(c2nc(OCC3CCCN3C)nc3c2CCN(c2cccc4cccc(C)c24)C3)CC1CC#N | 657 nM | 218 nM |  | < 31.6 nM | < 31.6 nM | 72.8% | 75.9% | 51.8% | 47.1% | 55.9% | 58.4% | 46.2% | 36.9% |  |  | 48.8% | 41.7% | 36.4% | 1.66% | 2.31% | viability, T/C [5]: 36.5%; viability, T/C [6]: 27%; viability, T/C [11]: 31.9%; viability, T/C [12]: 22.4%; viability, T/C [22]: 27.9%; viability, T/C [23]: 25.1%; viability, T/C [24]: 18.9%; viability, T/C [27]: 1.02%; viability, T/C [28]: 0.22%; viability, T/C [29]: 2.19%; viability, T/C [30]: 0.39%
6 | Cn1ncnc1[C@H]1c2n[nH]c(=O)c3cc(F)cc(c23)N[C@@H]1c1ccc(F)cc1 + C=CC(=O)N1CCN(c2nc(OCC3CCCN3C)nc3c2CCN(c2cccc4cccc(C)c24)C3)CC1CC#N | 7.27 nM | 3.84 nM | 1.97 nM | < 0.316 nM | < 0.316 nM | 28.2% | 16.9% |  |  | 21.9% | 14.6% |  |  | 18.7% | 13.7% | 17.1% | 12.3% |  | 0.18% | 0.22% | viability, T/C [31]: 77.5%; viability, T/C [32]: 69.2%; viability, T/C [33]: 63.3%; viability, T/C [34]: 45.2%; viability, T/C [35]: 54.5%; viability, T/C [36]: 57.5%; viability, T/C [37]: 54.3%; viability, T/C [38]: 35.2%; viability, T/C [39]: 56.1%; viability, T/C [40]: 48.5%; viability, T/C [41]: 49.8%; viability, T/C [42]: 32.8%; viability, T/C [43]: 44%; viability, T/C [44]: 53.7%; viability, T/C [45]: 37.1%; viability, T/C [46]: 25.4%; viability, T/C [47]: 0.23%; viability, T/C [48]: 0.18%; viability, T/C [49]: 0.94%; viability, T/C [50]: 0.16%
